Experimental findings from patent US5114960A, “Substituted isoxazole derivatives” (Hoffmann-La Roche Inc., priority 1989, dated 1992) are described below.

pIC50: −log10 of the molar value.

The subject of this assay is IL-1-dependent PGE^2. Nature of the assay: IL-1-dependent PGE2 inhibition test in human rheumatoid synovial cell lines. Type of assay: cell-based. To be noted: recombinant human IL-1 alpha 0.1 ng/ml, 7 hours, 37° C., read-out: IC50 (concentration reducing PGE2 release to 50% of IL-1-stimulated control values). As to the method: IL-1-dependent PGE ^2 inhibition test:
Human rheumatoid synovial cell lines, prepared by the enzymatic dissociation of fresh rheumatoid tissue, were maintained by culture in Dulbecco's modified Eagle medium containing 25 mM HEPES, 10% foetal calf serum, 100 units of penicillin per ml and 100 μg of streptomycin per ml (culture medium). Standard incubation conditions were 37° C. in a water-saturated atmosphere containing 95% air and 5% CO2.
Semi-confluent cultures at the third to eighteenth passage were detached by trypsin treatment and resuspended in culture medium at […]. The cell suspension was distributed to 200 μl aliquots into the wells of a 96-well microtitration plate and incubated for 18 hours at 37° C. to allow adhesion of the cells.
Test substances were dissolved in equimolar sodium hydroxide solution and double-dilution series were prepared in sterile water. If the test substances is a compound of formula I in which one of R^1 and R^2 is alkoxycarbonyl and the other hydrogen, it is treated with hog liver esterase prior to carrying out the test. The medium was aspirated from the microcultures of the synovial cells. 170 μl of culture medium were added and the cultures were treated with 20 μl of test substances and then 10 μl of recombinant human IL-1 alpha culture medium to give a final concentration of 0.1 ng/ml. All treatments were carried out in quadruplet. After incubation for 7 hours, samples of the culture media were removed and stored at -20° C. prior to assay for PGE2. The PGE2 content was determined using a [^I 125]R1A kit obtained from NEN Products.
PGE2 concentration detected in unstimulated controls were subtracted from values determined in all stimulated cultures and results were transformed to percent of IL-1-stimulated control PGE2 values. IC50 values were determined by interpolation as those concentrations reducing PGE2 release to 50% of IL-1-stimulated control values.

As for `CO[C@@H]1CC[C@@H](C(=O)O)Cc2onc(-c3ccc(Cl)cc3)c21` (relative stereo) [Compound D, trans-3-(4-Chlorophenyl)-5,6,7,8-tetrahydro-4-methoxy-4H-cyclohept[d]isoxazole-7-carboxylic acid], the pIC50 was 5.10. Take `CCC1(C(=O)O)C2CCc3c(-c4ccc(Cl)cc4)noc3C21` (stereo not drawn) [Compound F, endo-3-(4-Chlorophenyl)-6-ethyl-5,5a,6,6a-tetrahydro-4H-cyclopropa[g]-1,2-benzisoxazole-6-carboxylic acid]: the pIC50 is 6.15. Next, `C[C@H]1CC[C@H](C(=O)O)Cc2onc(-c3ccc(Cl)cc3)c21` (relative stereo) [Compound E, trans-3-(4-Chlorophenyl)-5,6,7,8-tetrahydro-4-methyl-4H-cyclohept[d]isoaxazole-7-carboxylic acid]: 7.40. For `O=C(O)C1CCCc2c(-c3ccc(Cl)cc3)noc2C1` (stereo not drawn) [Compound B, 3-(4-Chlorophenyl)-5,6,7,8-tetrahydro-4H-cyclohept[d]isoxazole-7-carboxylic acid], the pIC50 is 4.82. Next, `O=C(O)C1CCc2onc(-c3ccc(Cl)cc3)c2CC1` (single isomer, unassigned; (+)) [Compound A, (+)-3-(4-Chlorophenyl)-5,6,7,8-tetrahydro-4H-cyclohept[d]isoxazole-6-carboxylic acid]: 5.70; `O=C(O)[C@H]1[C@H]2CCc3c(-c4ccc(Cl)cc4)noc3[C@H]21` (relative stereo) [Compound C, endo-3-(4-Chlorophenyl)-5,5a,6,6a-tetrahydro-4H-cyclopropa[g]-1,2-benzisoxazole-6-carboxylic acid]: 6.30.
